Data as given in ChEMBL document CHEMBL3714750, “Aryl sulfonamides” (2008).

Target: T1, C-C chemokine receptor type 9 (Homo sapiens, UniProt P51686)
T1 sequence (P51686 whole entry): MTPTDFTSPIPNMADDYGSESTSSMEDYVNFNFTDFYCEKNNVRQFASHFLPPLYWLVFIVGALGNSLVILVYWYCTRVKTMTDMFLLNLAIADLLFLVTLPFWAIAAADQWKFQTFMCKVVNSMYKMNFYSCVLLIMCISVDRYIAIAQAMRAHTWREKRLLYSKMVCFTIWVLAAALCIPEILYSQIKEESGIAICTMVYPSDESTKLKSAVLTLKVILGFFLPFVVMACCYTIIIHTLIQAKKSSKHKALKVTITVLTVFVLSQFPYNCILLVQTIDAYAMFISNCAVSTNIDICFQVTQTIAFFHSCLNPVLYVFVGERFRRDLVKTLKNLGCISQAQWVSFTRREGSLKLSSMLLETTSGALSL
Experiment: Antagonist activity against CCR9 in human MOLT4 cells assessed as inhibition of human recombinant TECK-induced calcium response pre-treated before TECK stimulation by Flou-4-AM dye based FLIPR assay
Format: functional, cell-based, MOLT-4

Compound | IC50 [nM]
CS(=O)(=O)c1ccc(S(=O)(=O)Nc2ccc(Cl)cc2C(=O)c2ccncc2)cc1 | > 1000
Cc1cccc(C(=O)c2cc(Cl)ccc2NS(=O)(=O)c2ccc(C(C)(C)C)cc2)n1 | < 1000
CC(C)(C)c1ccc(S(=O)(=O)Nc2ccc(Cl)cc2C(=O)c2nccs2)cc1 | < 1000
Cc1cccc(C(=O)c2cc(Cl)ccc2NS(=O)(=O)c2ccc(C(C)(C)c3ncco3)cc2)n1 | < 1000
CC(C)(c1ccc(S(=O)(=O)Nc2ccc(Cl)cc2C(=O)c2ccncc2)cc1)c1ncco1 | < 1000
Cc1nnc(-c2ccc(S(=O)(=O)Nc3ccc(Cl)cc3C(=O)c3cccnc3)cc2)o1 | > 1000
CC(C)(C)c1ccc(S(=O)(=O)Nc2ccc(S(=O)(=O)N3CCCC3)cc2C(=O)c2ccncc2)cc1 | > 1000
O=C(c1ccncc1)c1cc(Cl)ccc1NS(=O)(=O)c1ccc(N2CCCCC2)cc1 | < 1000
O=C(c1ccncc1)c1cc(Cl)ccc1NS(=O)(=O)c1ccc(I)cc1 | < 1000
Cn1cc(C(=O)c2cc(Cl)ccc2NS(=O)(=O)c2ccc(C(C)(C)C)cc2)nn1 | < 1000
CN(C)C(=O)C(C)(C)c1ccc(S(=O)(=O)Nc2ccc(Cl)cc2C(=O)c2ccncc2)cc1 | > 1000
CC1(c2ccc(S(=O)(=O)Nc3ccc(Cl)cc3C(=O)c3cc[n+]([O-])cc3)cc2)CCOCC1 | < 1000
CC(C)(c1ccc(S(=O)(=O)Nc2ccc(Cl)cc2C(=O)c2cc[n+]([O-])cc2)cc1)c1cnco1 | < 1000
O=C(c1cc[n+]([O-])cc1)c1cc(Cl)ccc1NS(=O)(=O)c1ccc(N2CCOCC2)cc1 | < 1000
COc1ccc(S(=O)(=O)Nc2ccc(Br)cc2C(=O)c2ccncc2)cc1 | > 1000
Cc1ncccc1C(=O)c1cc(Cl)ccc1NS(=O)(=O)c1ccc(S(C)(=O)=O)cc1 | < 1000
O=C(c1ccncc1)c1cc(Cl)ccc1NS(=O)(=O)c1ccc(N2CCCC2)cc1 | < 1000
Cc1ccc(C(=O)c2cc(Cl)ccc2NS(=O)(=O)c2ccc(C3(C)CCOCC3)cc2)c[n+]1[O-] | < 1000
C[C@@H]1CN(c2ccc(S(=O)(=O)Nc3ccc(Cl)cc3C(=O)c3cc[n+]([O-])cc3)cc2F)C[C@H](C)O1 | < 1000
CC(C)(C)c1ccc(S(=O)(=O)Nc2ccc(Cl)cc2C(=O)c2ccnc(C#N)c2)cc1 | < 1000
C[C@@H]1CN(c2ccc(S(=O)(=O)Nc3ccc(Cl)cc3C(=O)c3ccncc3)cc2)C[C@H](C)O1 | < 1000
COc1ccc(S(=O)(=O)Nc2ccc(Cl)cc2C(=O)N2CCCCC2)cc1 | > 1000

Compound | IC50 [nM]
CC(C)(C)c1ccc(S(=O)(=O)Nc2ccc(Cl)cc2C(=O)c2ccnc(S(C)(=O)=O)c2)cc1 | < 1000
CC(C)(C)c1ccc(S(=O)(=O)Nc2ccc(F)c(F)c2C(=O)c2cccnc2)cc1 | < 1000
Cc1cc(C(=O)c2cc(Cl)ccc2NS(=O)(=O)c2ccc(C(C)(C)C)cc2)ccn1 | < 1000
CC(C)(c1ccc(S(=O)(=O)Nc2ccc(Cl)cc2C(=O)c2cc[n+]([O-])cc2)cc1)c1ncco1 | < 1000
CC1(c2ccc(S(=O)(=O)Nc3ccc(Cl)cc3C(=O)c3ccc[n+]([O-])c3)cc2)CCOCC1 | < 1000
Cc1cc(C(=O)c2cc(Cl)ccc2NS(=O)(=O)c2ccc(C3(C)CCOCC3)cc2)cc[n+]1[O-] | < 1000
Cn1nncc1C(=O)c1cc(Cl)ccc1NS(=O)(=O)c1ccc(C(C)(C)C)cc1 | < 1000
O=C(c1ccncc1)c1cc(Cl)ccc1NS(=O)(=O)c1ccc(N2CCOCC2)c(F)c1 | < 1000
Cc1ccc(C(=O)c2cc(Cl)ccc2NS(=O)(=O)c2ccc(N3C[C@@H](C)O[C@@H](C)C3)cc2)c[n+]1[O-] | < 1000
C[C@@H]1CN(c2ccc(S(=O)(=O)Nc3ccc(Cl)cc3C(=O)c3cc[n+]([O-])cc3)cc2)C[C@H](C)O1 | < 1000
CC(C)(c1ccc(S(=O)(=O)Nc2ccc(Cl)cc2C(=O)c2ccc[n+]([O-])c2)cc1)c1ncco1 | < 1000
CC(C)(C)c1ccc(S(=O)(=O)Nc2ccc(Cl)cc2C(=O)c2ccccn2)cc1 | < 1000
O=C(c1cc[n+]([O-])cc1)c1cc(Cl)ccc1NS(=O)(=O)c1ccc(-c2ccoc2)cc1 | < 1000
Cc1ccc(C(=O)c2cc(Cl)ccc2NS(=O)(=O)c2ccc(C(C)(C)c3ncco3)cc2)c[n+]1[O-] | < 1000
Cc1cccc(C(=O)c2cc(Cl)ccc2NS(=O)(=O)c2ccc(-c3cnco3)cc2)n1 | < 1000
Cc1ncccc1C(=O)c1cc(Cl)ccc1NS(=O)(=O)c1ccc(C2(C)CCOCC2)cc1 | < 1000
Cc1cc(C(=O)c2cc(Cl)ccc2NS(=O)(=O)c2ccc(OC(C)C)cc2)cc[n+]1[O-] | < 1000
CC(C)(C)c1ccc(S(=O)(=O)Nc2ccc(F)c(F)c2C(=O)c2ccncc2)cc1 | < 1000
CC(C)(C)c1ccc(S(=O)(=O)Nc2ccc(Cl)cc2C(=O)c2ccnc(Cl)c2)cc1 | < 1000
CC1(c2ccc(S(=O)(=O)Nc3ccc(Cl)cc3C(=O)c3ccncc3)cc2)OCCO1 | < 1000
CC(C)(C)c1ccc(S(=O)(=O)Nc2ccc(Cl)cc2C(=O)c2ccncn2)cc1 | < 1000
COc1ccc(S(=O)(=O)Nc2ccc(Cl)cc2C(=O)NCc2ccccc2)cc1 | < 1000

Compound | IC50 [nM]
CC1(c2ccc(S(=O)(=O)Nc3ccc(Cl)cc3C(=O)c3ccncc3)cc2)CCOCC1 | < 1000
O=C(c1ccncc1)c1cc(Cl)ccc1NS(=O)(=O)c1ccc(-c2cccnc2F)cc1 | > 1000
Cc1ccc(C(=O)c2cc(Cl)ccc2NS(=O)(=O)c2ccc(C3(C)CCOCC3)cc2)cn1 | < 1000
CC(C)(C)OC(=O)n1c(-c2ccc(S(=O)(=O)Nc3ccc(Cl)cc3C(=O)c3ccncc3)cc2)cc2ccccc21 | > 1000
Cc1ccc(C(=O)c2cc(Cl)ccc2NS(=O)(=O)c2ccc(OC(F)(F)F)cc2)cn1 | < 1000
Cn1nc(C(=O)c2cc(Cl)ccc2NS(=O)(=O)c2ccc(C(C)(C)C)cc2)c2ccccc21 | > 1000
CC(=O)c1ccc(S(=O)(=O)Nc2ccc(Cl)cc2C(=O)c2ccc(C)[n+]([O-])c2)cc1 | < 1000
O=C(c1ccncc1)c1cc(Cl)ccc1NS(=O)(=O)c1ccc(-c2nccs2)cc1 | > 1000
COc1ccc(S(=O)(=O)Nc2ccc(Cl)cc2C(=O)c2nccn2C)cc1 | > 1000
O=C(c1cccnc1)c1cc(F)c(F)cc1NS(=O)(=O)c1ccc(N2CCOCC2)cc1 | < 1000
O=C(c1ccncc1)c1cc(Cl)ccc1NS(=O)(=O)c1ccc(CCc2ncco2)cc1 | < 1000
COc1ccc(S(=O)(=O)Nc2ccc(Cl)cc2C(=O)c2ccncc2)cc1 | < 1000
CC(C)(C)c1ccc(S(=O)(=O)Nc2ccc(Cl)cc2C(=O)c2cccnc2)cc1 | < 1000
CC(=O)c1ccc(S(=O)(=O)Nc2ccc(Cl)cc2C(=O)c2ccnc(C)c2)cc1 | > 1000
Cc1ccncc1C(=O)c1cc(Cl)ccc1NS(=O)(=O)c1ccc(-c2cnco2)cc1 | < 1000
CC(C)(C)c1ccc(S(=O)(=O)Nc2ccc(Cl)cc2C(=O)c2ccc[n+]([O-])c2)cc1 | < 1000
Cc1ccc(C(=O)c2cc(Cl)ccc2NS(=O)(=O)c2ccc(C(C)(C)C)cc2)c[n+]1[O-] | < 1000
CC(C)(C)c1ccc(S(=O)(=O)Nc2ccc(Br)cc2C(=O)c2ccncc2)cc1 | < 1000
CC(C)(C)c1ccc(S(=O)(=O)Nc2cc(Cl)ccc2C(=O)c2ccncc2)cc1 | < 1000
Cc1ncccc1C(=O)c1cc(Cl)ccc1NS(=O)(=O)c1ccc(OC(C)C)cc1 | < 1000
O=C(c1ccncc1)c1cc(Cl)ccc1NS(=O)(=O)c1ccc(-c2ccoc2)cc1 | < 1000
Cc1ccc(C(=O)c2cc(Cl)ccc2NS(=O)(=O)c2ccc(OC(C)C)cc2)cn1 | < 1000

Compound | IC50 [nM]
O=C(c1ccncc1)c1cc(Cl)ccc1NS(=O)(=O)c1ccc(-c2ccc[nH]2)cc1 | > 1000
O=C(c1ccncc1)c1cc(Cl)ccc1NS(=O)(=O)c1ccc(-c2cncnc2)cc1 | > 1000
CC(C)(C)c1ccc(S(=O)(=O)Nc2ccc(Cl)cc2C(=O)c2ccc(N3CCOCC3)nc2)cc1 | > 1000
COc1ccc(S(=O)(=O)Nc2ccc(Cl)cc2C(=O)Nc2ccccc2)cc1 | < 1000
Cc1ccc(C(=O)c2cc(Cl)ccc2NS(=O)(=O)c2ccc(S(C)(=O)=O)cc2)c[n+]1[O-] | < 1000
O=C(c1ccncc1)c1cc(Cl)ccc1NS(=O)(=O)c1ccc(-c2ccccc2)cc1 | < 1000
Cc1c(C(=O)c2cc(Cl)ccc2NS(=O)(=O)c2ccc(C(C)(C)C)cc2)ccc[n+]1[O-] | < 1000
Cc1ccc(C(=O)c2cc(Cl)ccc2NS(=O)(=O)c2ccc(-c3cnc(C)o3)cc2)cn1 | > 1000
O=C(c1ccncc1)c1cc(Cl)ccc1NS(=O)(=O)c1ccc(-c2ccco2)cc1 | < 1000
Cc1ccc(C(=O)c2cc(Cl)ccc2NS(=O)(=O)c2ccc(-c3ocnc3C)cc2)cn1 | < 1000
CC1(c2ccc(S(=O)(=O)Nc3ccc(Cl)cc3C(=O)c3cccnc3)cc2)CCOCC1 | < 1000
CS(=O)(=O)c1ccc(S(=O)(=O)Nc2ccc(Cl)cc2C(=O)c2ccc(Cl)[n+]([O-])c2)cc1 | < 1000
CCOC(=O)CNC(=O)c1cc(Cl)ccc1NS(=O)(=O)c1ccc(OC)cc1 | > 1000
O=C(c1ccncc1)c1cc(Cl)ccc1NS(=O)(=O)c1ccc(C(F)(F)F)cc1 | > 1000
O=C(c1ccncc1)c1cc(Cl)ccc1NS(=O)(=O)c1ccc(-c2cc3ccccc3[nH]2)cc1 | > 1000
COc1ccc(S(=O)(=O)Nc2ccc(Cl)cc2C(=O)N2CCNCC2)cc1 | > 1000
CC(C)Oc1ccc(S(=O)(=O)Nc2ccc(Cl)cc2C(=O)c2ccncc2)cc1 | < 1000
O=C(c1ccncc1)c1cc(Cl)ccc1NS(=O)(=O)c1ccc(N2CCS(=O)(=O)CC2)cc1 | > 1000
O=C(c1cccnc1)c1cc(Cl)ccc1NS(=O)(=O)c1ccc(OC(F)(F)F)cc1 | < 1000
O=C(c1ccncc1)c1cc(Cl)ccc1NS(=O)(=O)c1ccc(-c2csnn2)cc1 | < 1000
